{"source": "patent US20070027218A1", "about": "“Pharmaceutical compositions comprising higher primary alcohols and ezetimibe and process of preparation thereof” (PANACEA BIOTEC LTD., priority 2004, published 2007)", "test_system": "Casein-Starch-Induced Hypercholesterolemia in Rabbits", "test": "Casein-starch-induced hypercholesterolemia in rabbits (serum lipid profile)", "format": "in vivo", "conditions": "for LDL-C level / serum total cholesterol level: mean ± S.E.M., in mg/dL (unit assumed)", "experimental": "The observed unexpected synergistic lipid lowering effect of combination of Extract-A as described herein and ezetimibe is evidenced by the test conducted in rabbits. Rabbits of either sex were procured from Central Animal House facility; Panacea Biotec Ltd., India. Animals weighing […] at the time of testing were used throughout. All animals were dosed sequentially by the oral route with Extract-A and/or ezetimibe suspended in 0.5% of carboxymethyl cellulose (CMC). A dosing volume of 2 ml/kg was used for each sequential suspension.\nThe fasting serum lipid profile (TC, TGs, LDL-C, HDL-C) was estimated before initiation of the experiment. […] Hypercholesterolemia was induced by feeding rabbits with wheat casein-starch diet (g/kg) containing wheat flour 333, cellulose 300, casein 270, water 20, maize oil 10, and mineral mixture (Kroon et al., 1982) for 8 weeks. Feed consumption was restricted to 100 g/day per animal. The cholesterol level was estimated every 15 days. After 60 days animals with total cholesterol level>150 mg/dl were randomized to treatment (n=6/group). Thereafter, various doses of Extract-A and/or ezetimibe were administered for another 60 days during which animals were fed with casein-starch diet. Blood samples were collected from fasted rabbits and analyzed for any alteration in serum lipid profile after 60 days of test compound(s) administration.\nAll the data are expressed as mean±S.E.M. (Standard Error of Mean). Student t-test was used to compare the lipid parameters between animals fed with standard and hypercholesterolemic diet. The difference between various drug treated groups was analyzed by ANOVA followed by Dunnett's test. A value of P<0.05 was considered as statistically significant.", "key": {"[1]": {"conditions": "Extract-A 100 and 200 mg/kg p.o., ezetimibe 5 and 10 mg/kg p.o., alone or in combination, vs hypercholesterolemic control rabbits"}, "[2]": {"conditions": "ezetimibe 5 mg/kg p.o., day 0 (before treatment)"}, "[3]": {"conditions": "ezetimibe 5 mg/kg p.o., day 15 (before treatment)"}, "[4]": {"conditions": "ezetimibe 5 mg/kg p.o., day 30 (before treatment)"}, "[5]": {"conditions": "ezetimibe 5 mg/kg p.o., day 60 (start of treatment)"}, "[6]": {"conditions": "ezetimibe 5 mg/kg p.o., day 75 (treatment from day 60)"}, "[7]": {"conditions": "ezetimibe 5 mg/kg p.o., day 90 (treatment from day 60)"}, "[8]": {"conditions": "ezetimibe 5 mg/kg p.o., day 105 (treatment from day 60)"}, "[9]": {"conditions": "ezetimibe 5 mg/kg p.o., day 120 (treatment from day 60)"}, "[10]": {"conditions": "ezetimibe 10 mg/kg p.o., day 0 (before treatment)"}, "[11]": {"conditions": "ezetimibe 10 mg/kg p.o., day 15 (before treatment)"}, "[12]": {"conditions": "ezetimibe 10 mg/kg p.o., day 30 (before treatment)"}, "[13]": {"conditions": "ezetimibe 10 mg/kg p.o., day 60 (start of treatment)"}, "[14]": {"conditions": "ezetimibe 10 mg/kg p.o., day 75 (treatment from day 60)"}, "[15]": {"conditions": "ezetimibe 10 mg/kg p.o., day 90 (treatment from day 60)"}, "[16]": {"conditions": "ezetimibe 10 mg/kg p.o., day 105 (treatment from day 60)"}, "[17]": {"conditions": "ezetimibe 10 mg/kg p.o., day 120 (treatment from day 60)"}}}
{"smiles": "O=C1[C@H](CC[C@H](O)c2ccc(F)cc2)[C@@H](c2ccc(O)cc2)N1c1ccc(F)cc1", "note": "[Ez, ezetimibe]", "values": [{"measurement": "LDL-C levels (result in words)", "setting": "[1]", "result": "reversed"}, {"measurement": "TC levels (result in words)", "setting": "[1]", "result": "reversed"}, {"measurement": "LDL-C level", "setting": "[2]", "result": "22.40 ± 8.81"}, {"measurement": "serum total cholesterol level", "setting": "[2]", "result": "52.50 ± 3.59"}, {"measurement": "LDL-C level", "setting": "[3]", "result": "76.13 ± 3.11"}, {"measurement": "serum total cholesterol level", "setting": "[3]", "result": "103.50 ± 2.23"}, {"measurement": "LDL-C level", "setting": "[4]", "result": "131.53 ± 6.89"}, {"measurement": "serum total cholesterol level", "setting": "[4]", "result": "169.83 ± 6.16"}, {"measurement": "LDL-C level", "setting": "[5]", "result": "174.3 ± 8.02"}, {"measurement": "serum total cholesterol level", "setting": "[5]", "result": "219.83 ± 7.5"}, {"measurement": "LDL-C level", "setting": "[6]", "result": "194.07 ± 4.29"}, {"measurement": "serum total cholesterol level", "setting": "[6]", "result": "236.50 ± 3.47"}, {"measurement": "LDL-C level", "setting": "[7]", "result": "179.47 ± 3.74"}, {"measurement": "serum total cholesterol level", "setting": "[7]", "result": "222.83 ± 2.77"}, {"measurement": "LDL-C level", "setting": "[8]", "result": "156.47 ± 12.92"}, {"measurement": "serum total cholesterol level", "setting": "[8]", "result": "201.00 ± 12.6"}, {"measurement": "LDL-C level", "setting": "[9]", "result": "129.17 ± 9.02"}, {"measurement": "serum total cholesterol level", "setting": "[9]", "result": "181.50 ± 8.55"}, {"measurement": "LDL-C level", "setting": "[10]", "result": "23.70 ± 7.98"}, {"measurement": "serum total cholesterol level", "setting": "[10]", "result": "46.50 ± 2.2"}, {"measurement": "LDL-C level", "setting": "[11]", "result": "72.70 ± 3.92"}, {"measurement": "serum total cholesterol level", "setting": "[11]", "result": "106.83 ± 3.38"}, {"measurement": "LDL-C level", "setting": "[12]", "result": "125.07 ± 10.94"}, {"measurement": "serum total cholesterol level", "setting": "[12]", "result": "162.50 ± 11.54"}, {"measurement": "LDL-C level", "setting": "[13]", "result": "197.03 ± 13.55"}, {"measurement": "serum total cholesterol level", "setting": "[13]", "result": "234.50 ± 14.24"}, {"measurement": "LDL-C level", "setting": "[14]", "result": "179.83 ± 9.83"}, {"measurement": "serum total cholesterol level", "setting": "[14]", "result": "220.33 ± 8.73"}, {"measurement": "LDL-C level", "setting": "[15]", "result": "152.80 ± 6.17"}, {"measurement": "serum total cholesterol level", "setting": "[15]", "result": "197.66 ± 5.42"}, {"measurement": "LDL-C level", "setting": "[16]", "result": "126.60 ± 6.85"}, {"measurement": "serum total cholesterol level", "setting": "[16]", "result": "172.16 ± 6.58"}, {"measurement": "LDL-C level", "setting": "[17]", "result": "124.63 ± 6.55"}, {"measurement": "serum total cholesterol level", "setting": "[17]", "result": "171.50 ± 4.7"}]}
